Data on 18 compounds can be found in paper PMC11852049, “Impact of Hydrophobic, Hydrophilic, and Mucus-Binding Motifs on the Therapeutic Potential of Ceftazidime Analogs for Pulmonary Administration” (Antibiotics, 2025).

≈ marks a conversion by molar mass, not a printed value. Some results are limits rather than exact numbers.

Series [1] has as its system Burkholderia pseudomallei. The experiment in a line: microbe, parasite or virus in culture. Format: cell-based. Particulars: for MIC: Burkholderia pseudomallei, 24 h, read-out: MIC Bp; for MIC Bp: 24 h at 37 °C, cation-adjusted Mueller–Hinton II broth, mean of two replicates.
Series [2] deals with Pseudomonas aeruginosa. Nature of the series: microbe, parasite or virus in culture. The note with it: for MIC: Pseudomonas aeruginosa, 24 h, read-out: MIC Pa. Format: cell-based.
For series [3], the system named is Escherichia coli. Nature of the series: microbe, parasite or virus in culture. The note with it: 24 h, read-out: MIC Ec. Format: cell-based.
Series [4] has as its system Staphylococcus aureus Newman. The experiment in a line: microbe, parasite or virus in culture. The series is classed as cell-based. The note with it: for MIC: Staphylococcus aureus, NEWMAN, 24 h, read-out: MIC Sa.
Series [5] in a line: Transepithelial transport assay (Papp), HBEC air–liquid interface cultures on Transwells. Particulars: human, Papp (apparent permeability), mean ± standard deviation, apical to basal over 24 h, approx. 5 mg/mL apical.
Details of series [6]: method as in PMID 29096171, PMID 7629560. The note with it: delivered via injection; cited from earlier work.
[7] abbreviates: compound set 2, three donors (L8 excluded).

The term Papp denotes the rate of passage across a membrane or cell layer, normalised by area and donor concentration. `CC(C)(O/N=C(/C(=O)N[C@@H]1C(=O)N2C(C(=O)[O-])=C(C[n+]3ccccc3)CS[C@H]12)c1csc(N)n1)C(=O)NCCc1ccccc1` [Compound 3]: the MIC in series [1] was determined as 200 µg/mL (≈ 308 µM); in series [2] it was 200 µg/mL (≈ 308 µM); in series [3], 100 µg/mL (≈ 154 µM); in series [4], 3 µg/mL (≈ 4.62 µM). Besides, in series [5] (setting [7]), the Papp at 24 h is 4.65 ± 0.86 ×10⁻⁶ cm/s.
As for `CC(C)(O/N=C(/C(=O)N[C@@H]1C(=O)N2C(C(=O)[O-])=C(C[n+]3ccccc3)CS[C@H]12)c1csc(N)n1)C(=O)NC(CCC(=O)O)C(=O)O` (some centres unmarked) [Compound 13], the MIC is 200 µg/mL (≈ 296 µM) in series [1], 200 µg/mL (≈ 296 µM) in series [2], less than 15 µg/mL in series [3] and 200 µg/mL (≈ 296 µM) in series [4]. The apparent permeability coefficient (Papp) at 24 h in series [5] (setting [7]) is 2.79 ± 0.91 ×10⁻⁶ cm/s.
Consider `CC(C)(O/N=C(/C(=O)N[C@@H]1C(=O)N2C(C(=O)[O-])=C(C[n+]3ccccc3)CS[C@H]12)c1csc(N)n1)C(=O)NCCCS(=O)(=O)c1ccccc1` [Compound 5], for which the MIC in series [1] is 150 µg/mL (≈ 206 µM); in series [2], 200 µg/mL (≈ 275 µM); in series [3], less than 15 µg/mL; in series [4], 13 µg/mL (≈ 17.9 µM). Besides, the Papp at 24 h in series [5] (setting [7]) came out at 2.71 ± 0.93 ×10⁻⁶ cm/s.
The matching figures for `CC(C)(O/N=C(/C(=O)N[C@@H]1C(=O)N2C(C(=O)[O-])=C(C[n+]3ccccc3)CS[C@H]12)c1csc(N)n1)C(=O)NCCCSc1ccc(B(O)O)cc1` [Compound 16, 4-propylthiophenyl boronic acid-ceftazidime]: 200 µg/mL (≈ 270 µM), greater than 200 µg/mL, 50 µg/mL (≈ 67.6 µM), 3 µg/mL (≈ 4.06 µM) and 4.9 ± 1.4 ×10⁻⁶ cm/s.
As for `CC(C)(O/N=C(/C(=O)N[C@@H]1C(=O)N2C(C(=O)[O-])=C(C[n+]3ccccc3)CS[C@H]12)c1csc(N)n1)C(=O)NCCOCCOCCOCCOCCOCCNc1ccnc(N)n1` [Compound 15, PEG5-pyrimidin-2-amine-ceftazidime], the MIC in series [1] is 200 µg/mL (≈ 222 µM); in series [2], greater than 200 µg/mL; in series [3], 38 µg/mL (≈ 42.1 µM); in series [4], 50 µg/mL (≈ 55.4 µM). Moreover, the Papp at 24 h in series [5] (compound set 1, three donors) turned out to be 1.75 ± 0.06 ×10⁻⁶ cm/s.
Consider `COCCOCCOCCOCCOCCNC(=O)C(C)(C)O/N=C(/C(=O)N[C@@H]1C(=O)N2C(C(=O)[O-])=C(C[n+]3ccccc3)CS[C@H]12)c1csc(N)n1` [Compound 8], for which, in series [1], the “MIC Bp” value was no less than 100 µg/mL and the MIC was greater than 200 µg/mL. Besides, in series [2], the MIC Pa is no less than 100 µg/mL and the MIC is greater than 200 µg/mL. For the same compound, the MIC in series [3] is no less than 100 µg/mL. Besides, in series [4], the MIC Sa was no less than 100 µg/mL and the MIC is 100 µg/mL (≈ 128 µM). The Papp at 24 h in series [5] (compound set 1, three donors) was found to be 2.23 ± 0.22 ×10⁻⁶ cm/s.
`COCCOCCOCCNC(=O)C(C)(C)O/N=C(/C(=O)N[C@@H]1C(=O)N2C(C(=O)[O-])=C(C[n+]3ccccc3)CS[C@H]12)c1csc(N)n1` [Compound 7]: the MIC in series [1] is greater than 200 µg/mL; in series [2], greater than 200 µg/mL; in series [3] it was 100 µg/mL (≈ 145 µM); in series [4] it was 50 µg/mL (≈ 72.3 µM). In addition, in series [5] (setting [7]), the Papp at 24 h turned out to be 3.6 ± 1.1 ×10⁻⁶ cm/s.
Take `CC(C)(O/N=C(/C(=O)N[C@@H]1C(=O)N2C(C(=O)[O-])=C(C[n+]3ccccc3)CS[C@H]12)c1csc(N)n1)C(=O)NCCc1cc(O)c(O)cc1Cl` [Compound 4]: in series [1], the “MIC Bp” value is less than 60 µg/mL. The MIC is 1.6 µg/mL (≈ 2.23 µM) in series [1], 19 µg/mL (≈ 26.5 µM) in series [2], less than 15 µg/mL in series [3] and 38 µg/mL (≈ 53.1 µM) in series [4]. In series [2], the MIC Pa was less than 60 µg/mL. In addition, in series [5] (setting [7]), the Papp at 24 h is 2.94 ± 0.63 ×10⁻⁶ cm/s.
As to `CCCCNC(=O)C(C)(C)O/N=C(/C(=O)N[C@@H]1C(=O)N2C(C(=O)[O-])=C(C[n+]3ccccc3)CS[C@H]12)c1csc(N)n1` [Compound 1, n-butyl-ceftazidime], the MIC in series [1] was found to be 200 µg/mL (≈ 332 µM); in series [2] it was 200 µg/mL (≈ 332 µM); in series [3] it was 100 µg/mL (≈ 166 µM); in series [4] it was 6 µg/mL (≈ 9.97 µM). Moreover, the Papp at 24 h in series [5] (compound set 1, three donors) came to 1.91 ± 0.45 ×10⁻⁶ cm/s.
Turning to `CN1CCN(CCNC(=O)C(C)(C)O/N=C(/C(=O)N[C@@H]2C(=O)N3C(C(=O)[O-])=C(C[n+]4ccccc4)CS[C@H]23)c2csc(N)n2)CC1` [Compound 12], in series [1], the “MIC Bp” value was no less than 100 µg/mL and the MIC was greater than 200 µg/mL. Moreover, in series [2], the MIC Pa is no less than 100 µg/mL and the MIC was greater than 200 µg/mL. The MIC in series [3] was no less than 100 µg/mL. In series [4], the MIC Sa is no less than 100 µg/mL and the MIC was greater than 200 µg/mL. Further, the Papp at 24 h in series [5] (setting [7]) stood at 2.6 ± 0.94 ×10⁻⁶ cm/s.
Regarding `COCCOCCOCCOCCOCCOCCOCCOCCNC(=O)C(C)(C)O/N=C(/C(=O)N[C@@H]1C(=O)N2C(C(=O)[O-])=C(C[n+]3ccccc3)CS[C@H]12)c1csc(N)n1` [Compound 9], in series [1], the “MIC Bp” value was no less than 100 µg/mL and the MIC was greater than 200 µg/mL. In series [2], the MIC Pa is no less than 100 µg/mL and the MIC is greater than 200 µg/mL. Moreover, in series [3], the MIC was no less than 100 µg/mL. Moreover, in series [4], the MIC Sa was no less than 100 µg/mL and the MIC amounted to 200 µg/mL (≈ 219 µM). Also, the Papp at 24 h in series [5] (compound set 1, three donors) stood at 1.86 ± 0.39 ×10⁻⁶ cm/s.
As for `CC(C)(O/N=C(/C(=O)N[C@@H]1C(=O)N2C(C(=O)[O-])=C(C[n+]3ccccc3)CS[C@H]12)c1csc(N)n1)C(=O)NCCNC(=O)c1ccc(B(O)O)cc1` [Compound 18], the “MIC Bp” value in series [1] was less than 60 µg/mL. Besides, the figures for the MIC in series [1], in series [2] and in series [4] were 50 µg/mL (≈ 67.9 µM), 50 µg/mL (≈ 67.9 µM) and 25 µg/mL (≈ 33.9 µM), respectively. The same compound had an MIC Pa in series [2] of less than 60 µg/mL. Further, the Papp at 24 h in series [5] (setting [7]) worked out at 2.21 ± 0.45 ×10⁻⁶ cm/s.
Turning to `CC(C)(O/N=C(/C(=O)N[C@@H]1C(=O)N2C(C(=O)[O-])=C(C[n+]3ccccc3)CS[C@H]12)c1csc(N)n1)C(=O)NCCCS(=O)(=O)c1ccc(B(O)O)cc1` [Compound 17], the MIC was found to be 200 µg/mL (≈ 259 µM) in series [1], 200 µg/mL (≈ 259 µM) in series [2], 50 µg/mL (≈ 64.8 µM) in series [3] and 13 µg/mL (≈ 16.8 µM) in series [4]. Further, the Papp at 24 h in series [5] (setting [7]) was found to be 3.33 ± 0.36 ×10⁻⁶ cm/s.
Take `CC(C)(O/N=C(/C(=O)N[C@@H]1C(=O)N2C(C(=O)[O-])=C(C[n+]3ccccc3)CS[C@H]12)c1csc(N)n1)C(=O)NCCNc1ccnc(N)n1` [Compound 14]: in series [1], the “MIC Bp” value is no less than 100 µg/mL. Also, the MIC in series [1] was greater than 200 µg/mL; in series [2], 100 µg/mL (≈ 147 µM); in series [3], no less than 100 µg/mL; in series [4], greater than 200 µg/mL. In series [2], this compound had an MIC Pa of no less than 100 µg/mL. This compound gave an MIC Sa in series [4] of no less than 100 µg/mL. Further, the Papp at 24 h in series [5] (setting [7]) was 2.03 ± 0.6 ×10⁻⁶ cm/s.
In the case of `CC(C)(O/N=C(/C(=O)N[C@@H]1C(=O)N2C(C(=O)[O-])=C(C[n+]3ccccc3)CS[C@H]12)c1csc(N)n1)C(=O)NCCCCCCOCCCCc1ccccc1` [Compound 6], the MIC in series [1] was greater than 200 µg/mL; in series [2], 200 µg/mL (≈ 257 µM); in series [3], 100 µg/mL (≈ 129 µM); in series [4] it was 3 µg/mL (≈ 3.86 µM). Further, the Papp at 24 h in series [5] (setting [7]) stood at 2.45 ± 0.21 ×10⁻⁶ cm/s.
With `CC(C)(O/N=C(\C(=O)N[C@@H]1C(=O)N2C(C(=O)[O-])=C(C[n+]3ccccc3)CS[C@H]12)c1csc(N)n1)C(=O)O` [Ceftazidime pentahydrate, ceftazidime pentahydrate, reference compound], the MIC in series [1] came to 3 µg/mL; in series [2] it was 6 µg/mL; in series [3], 0.4 µg/mL; in series [4] it was 13 µg/mL. In addition, the “penetration ratio (PELF-to-total plasma concentration)” value in series [6] was 20–30%. The Papp at 24 h in series [5] (compound set 1, three donors) was 3.36 ± 0.18 ×10⁻⁶ cm/s; in series [5] (setting [7]), 2.54 ×10⁻⁶ cm/s.
Take `CC(C)(O/N=C(/C(=O)N[C@@H]1C(=O)N2C(C(=O)[O-])=C(C[n+]3ccccc3)CS[C@H]12)c1csc(N)n1)C(=O)NC1C(O)O[C@H](CO)[C@@H](O)[C@@H]1O` (some centres unmarked) [Compound 10]: the “MIC Bp” value in series [1] was less than 60 µg/mL. In addition, the MIC in series [1] is 38 µg/mL (≈ 53.7 µM); in series [2], 50 µg/mL (≈ 70.6 µM); in series [3], less than 4 µg/mL; in series [4], 150 µg/mL (≈ 212 µM). The same compound yielded an MIC Pa in series [2] of less than 60 µg/mL. The Papp at 24 h in series [5] (setting [7]) worked out at 2.75 ± 0.68 ×10⁻⁶ cm/s.
Regarding `CCN(CC)CCNC(=O)C(C)(C)O/N=C(/C(=O)N[C@@H]1C(=O)N2C(C(=O)[O-])=C(C[n+]3ccccc3)CS[C@H]12)c1csc(N)n1` [Compound 11], the MIC in series [1] worked out at 75 µg/mL (≈ 116 µM); in series [2], 150 µg/mL (≈ 233 µM); in series [3], 63 µg/mL (≈ 97.7 µM); in series [4] it was 25 µg/mL (≈ 38.8 µM). Further, the MIC Sa in series [4] was less than 40 µg/mL. For the same compound, the Papp at 24 h in series [5] (compound set 1, three donors) amounted to 3.58 ± 0.5 ×10⁻⁶ cm/s.
